One test addresses T1, rat mGluR1 (Rattus norvegicus, UniProt P23385).
T1 construct: rat cerebellar membrane preparation was used; from tissue; host or cells: rat cerebellum (membrane preparation)
Briefly: MGluR1 receptor binding test ([3H]R214127 displacement, rat cerebellar membrane preparation). The conditions noted are these: rat mGluR1, [3H]R214127 3 nM; read-out: mGlu1 Ki. In a few lines: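 Rat cerebellar membranes with 3 nM [3H]R214127; nonspecific binding defined by 1 μM R214127. IC50 from displacement curves by nonlinear regression, converted to Ki by Cheng–Prusoff.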

For another test, the target named is T2, rat mGluR5 (Rattus norvegicus, UniProt P31424).
T2 construct: Rat cerebro-cortical membrane preparation was used; from tissue; host or cells: rat cerebral cortex (membrane preparation)
T2 sequence (P31424 21-1203): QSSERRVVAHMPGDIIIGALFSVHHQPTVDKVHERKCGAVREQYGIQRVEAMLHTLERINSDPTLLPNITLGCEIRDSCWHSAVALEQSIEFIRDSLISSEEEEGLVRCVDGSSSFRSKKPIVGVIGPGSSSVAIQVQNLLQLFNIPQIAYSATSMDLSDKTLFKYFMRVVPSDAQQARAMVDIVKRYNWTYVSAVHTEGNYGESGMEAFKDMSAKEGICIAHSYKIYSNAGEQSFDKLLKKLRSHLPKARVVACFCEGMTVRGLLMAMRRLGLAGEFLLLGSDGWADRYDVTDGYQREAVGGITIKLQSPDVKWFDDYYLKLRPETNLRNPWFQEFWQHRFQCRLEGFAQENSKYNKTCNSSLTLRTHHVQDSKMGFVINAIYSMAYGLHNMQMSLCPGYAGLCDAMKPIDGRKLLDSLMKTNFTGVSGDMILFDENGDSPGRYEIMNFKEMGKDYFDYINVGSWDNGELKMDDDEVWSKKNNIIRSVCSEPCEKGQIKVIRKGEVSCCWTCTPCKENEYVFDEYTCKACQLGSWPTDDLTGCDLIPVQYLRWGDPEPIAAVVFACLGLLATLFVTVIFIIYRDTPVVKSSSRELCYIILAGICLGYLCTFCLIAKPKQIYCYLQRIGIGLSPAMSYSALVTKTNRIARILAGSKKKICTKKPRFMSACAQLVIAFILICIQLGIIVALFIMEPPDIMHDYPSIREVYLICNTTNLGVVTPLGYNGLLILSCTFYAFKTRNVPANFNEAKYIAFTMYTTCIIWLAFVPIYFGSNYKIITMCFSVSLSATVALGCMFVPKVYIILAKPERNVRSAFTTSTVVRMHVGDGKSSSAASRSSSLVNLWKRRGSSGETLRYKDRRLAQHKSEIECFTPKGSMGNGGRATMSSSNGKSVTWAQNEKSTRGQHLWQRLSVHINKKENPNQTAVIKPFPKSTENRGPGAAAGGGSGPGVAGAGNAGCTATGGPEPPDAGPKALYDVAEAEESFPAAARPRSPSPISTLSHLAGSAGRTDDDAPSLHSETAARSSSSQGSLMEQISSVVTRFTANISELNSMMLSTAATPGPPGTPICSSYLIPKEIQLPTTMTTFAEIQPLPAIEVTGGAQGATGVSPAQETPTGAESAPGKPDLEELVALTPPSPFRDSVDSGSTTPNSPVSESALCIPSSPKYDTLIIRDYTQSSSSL
Briefly: MGluR5 receptor binding test ([3H]-M-MPEP displacement, rat cerebro-cortical membrane preparation). To be noted: rat mGluR5, [3H]-M-MPEP 2 nM; read-out: mGlu5 Ki. How it is done: Rat cerebro-cortical membrane preparation was used to determine the binding characteristics of reference compounds and novel compounds to the rat mGluR5. The A18 cell line expressing hmGluR5a (purchased from Euroscreen) was used to determine binding characteristics of the chemical compounds to the human mGluR5a receptor. [3H]-M-MPEP (2 nM) was used as radioligand. The nonspecific binding was determined in the presence of 10 μM M-MPEP.

The results in this text go back to US8063220B2, “Sulfonyl-quinoline derivatives” (Richter Gedeon Nyrt., priority 2007, dated 2011).

SMILES strings stand for the structures. A value given as a limit tells only on which side of the number the result lay.

T1 sequence (P23385 19-1199): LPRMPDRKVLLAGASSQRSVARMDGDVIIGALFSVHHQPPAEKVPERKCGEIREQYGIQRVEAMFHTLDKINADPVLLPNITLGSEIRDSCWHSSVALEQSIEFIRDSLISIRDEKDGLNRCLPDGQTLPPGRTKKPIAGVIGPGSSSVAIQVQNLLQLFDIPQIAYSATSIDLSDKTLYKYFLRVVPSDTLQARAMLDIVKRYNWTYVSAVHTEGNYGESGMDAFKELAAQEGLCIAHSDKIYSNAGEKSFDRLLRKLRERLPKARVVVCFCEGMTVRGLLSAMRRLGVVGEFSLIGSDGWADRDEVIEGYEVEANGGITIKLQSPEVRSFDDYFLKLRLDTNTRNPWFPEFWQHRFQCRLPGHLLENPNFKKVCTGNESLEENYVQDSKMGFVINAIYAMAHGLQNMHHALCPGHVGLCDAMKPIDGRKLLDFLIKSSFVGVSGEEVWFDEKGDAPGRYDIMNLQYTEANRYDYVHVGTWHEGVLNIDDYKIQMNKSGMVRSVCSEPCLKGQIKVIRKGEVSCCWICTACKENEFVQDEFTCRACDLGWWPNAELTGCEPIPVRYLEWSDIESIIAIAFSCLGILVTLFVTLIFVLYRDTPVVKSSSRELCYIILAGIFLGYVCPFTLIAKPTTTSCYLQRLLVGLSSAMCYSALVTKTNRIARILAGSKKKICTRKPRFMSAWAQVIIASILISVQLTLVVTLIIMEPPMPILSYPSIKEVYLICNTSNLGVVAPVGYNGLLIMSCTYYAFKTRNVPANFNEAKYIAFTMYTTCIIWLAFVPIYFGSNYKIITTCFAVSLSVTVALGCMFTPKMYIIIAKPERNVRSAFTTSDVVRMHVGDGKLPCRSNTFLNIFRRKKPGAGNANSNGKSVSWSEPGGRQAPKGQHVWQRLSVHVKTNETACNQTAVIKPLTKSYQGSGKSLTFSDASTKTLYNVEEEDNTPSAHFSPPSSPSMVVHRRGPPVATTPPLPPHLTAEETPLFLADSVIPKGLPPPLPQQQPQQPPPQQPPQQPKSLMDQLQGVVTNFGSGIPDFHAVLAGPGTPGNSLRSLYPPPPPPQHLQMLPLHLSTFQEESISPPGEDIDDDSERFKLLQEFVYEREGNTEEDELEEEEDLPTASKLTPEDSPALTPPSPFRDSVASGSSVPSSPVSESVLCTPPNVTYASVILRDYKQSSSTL

Consider `COc1cccc(S(=O)(=O)c2cnc3ccc(F)cc3c2-c2ccc(Cl)cc2)c1` [Compound 144], for which the Ki on rat mGluR1 is above 500 nM; at rat mGluR5 it was below 200 nM.

In the case of `COc1ccc(-c2c(S(=O)(=O)c3cccc(OC)c3)cnc3ccc(F)cc23)cc1` [Compound 145], the figures for the Ki at rat mGluR1 and on rat mGluR5 were above 500 nM and below 200 nM, respectively.

Take `Cc1ccc(S(=O)(=O)c2cnc3ccc(F)cc3c2-c2cccc(F)c2)cc1C` [Compound 146]: the Ki at rat mGluR1 is above 500 nM; on rat mGluR5, below 200 nM.

As to `COc1ccc(-c2c(S(=O)(=O)c3ccc(C)c(C)c3)cnc3ccc(F)cc23)cc1` [Compound 147], the Ki was above 500 nM on rat mGluR1 and below 200 nM on rat mGluR5.

Turning to `Cc1ccc(S(=O)(=O)c2cnc3ccc(F)cc3c2-c2ccc(F)cc2)cc1C` [Compound 148], the Ki on rat mGluR1 is above 500 nM; on rat mGluR5 it was below 200 nM.

Turning to `O=S(=O)(c1ccc(F)c(F)c1)c1cnc2ccc(F)cc2c1-c1cccc(Cl)c1` [Compound 149], the Ki at rat mGluR1 and at rat mGluR5 was 200 to 500 nM throughout.

Regarding `O=S(=O)(c1ccc(F)c(F)c1)c1cnc2ccc(F)cc2c1-c1cccc(F)c1` [Compound 150], the Ki was 200 to 500 nM at rat mGluR1 and below 200 nM on rat mGluR5.

For `COc1cccc(-c2c(S(=O)(=O)c3ccc(F)c(F)c3)cnc3ccc(F)cc23)c1` [Compound 151], the figures for the Ki at rat mGluR1 and on rat mGluR5 were above 500 nM and 200 to 500 nM, respectively.

In the case of `O=S(=O)(c1ccc(F)c(F)c1)c1cnc2ccc(F)cc2c1-c1ccc(F)cc1` [Compound 152], the figures for the inhibitory constant (Ki) on rat mGluR1 and on rat mGluR5 were 200 to 500 nM and below 200 nM, respectively.

As for `O=S(=O)(c1ccc(F)c(Cl)c1)c1cnc2ccc(F)cc2c1-c1ccc(Cl)cc1` [Compound 153], the Ki on rat mGluR1 is 200 to 500 nM; at rat mGluR5, below 200 nM.

On to `COc1cccc(-c2c(S(=O)(=O)c3ccc(F)c(Cl)c3)cnc3ccc(F)cc23)c1` [Compound 154], for which the results for the inhibitory constant (Ki) at rat mGluR1 and at rat mGluR5 were above 500 nM and below 200 nM, respectively.

Consider `O=S(=O)(c1ccc(F)c(Cl)c1)c1cnc2ccc(F)cc2c1-c1ccc(F)cc1` [Compound 155], for which the Ki on rat mGluR1 is 200 to 500 nM; at rat mGluR5, below 200 nM.

Turning to `O=S(=O)(c1cc(Cl)cc(Cl)c1)c1cnc2cc(F)ccc2c1-c1cccc(Cl)c1` [Compound 156], the results for the Ki on rat mGluR1 and at rat mGluR5 were 200 to 500 nM and below 200 nM, respectively.

As for `O=S(=O)(c1cc(Cl)cc(Cl)c1)c1cnc2cc(F)ccc2c1-c1ccc(Cl)cc1` [Compound 157], the figures for the inhibition constant (Ki) on rat mGluR1 and on rat mGluR5 were 200 to 500 nM and below 200 nM, respectively.

As for `O=S(=O)(c1cc(Cl)cc(Cl)c1)c1cnc2c(F)cccc2c1-c1cccc(Cl)c1` [Compound 158], the inhibitory constant (Ki) was 200 to 500 nM at rat mGluR1 and below 200 nM on rat mGluR5.

For `O=S(=O)(c1cc(Cl)cc(Cl)c1)c1cnc2c(F)cccc2c1-c1ccc(Cl)cc1` [Compound 159], the values for the Ki on rat mGluR1 and at rat mGluR5 were 200 to 500 nM and below 200 nM, respectively.

With `O=S(=O)(c1cc(Cl)cc(Cl)c1)c1cnc2ccc(F)cc2c1-c1cccc(Cl)c1` [Compound 160], the Ki at rat mGluR1 is above 500 nM; on rat mGluR5, below 200 nM.

For `O=S(=O)(c1cc(Cl)cc(Cl)c1)c1cnc2ccc(F)cc2c1-c1ccc(Cl)cc1` [Compound 161], the Ki on rat mGluR1 was above 500 nM; on rat mGluR5 it was below 200 nM.

Consider `COc1ccc(S(=O)(=O)c2cnc3cc(F)ccc3c2-c2cccc(Cl)c2)cc1OC` [Compound 162], for which the Ki on rat mGluR1 and on rat mGluR5 was above 500 nM throughout.

In the case of `COc1ccc(-c2c(S(=O)(=O)c3ccc(OC)cc3)cnc3ccc(F)cc23)cc1` [Compound 163], the figures for the Ki at rat mGluR1 and on rat mGluR5 were above 500 nM and below 200 nM, respectively.

For the compound `COc1ccc(S(=O)(=O)c2cnc3ccc(F)cc3c2-c2ccc(Cl)cc2)cc1OC` [Compound 164], the Ki on rat mGluR1 and on rat mGluR5 was above 500 nM each time.

For `COc1ccc(S(=O)(=O)c2cnc3ccc(F)cc3c2-c2ccc(F)cc2)cc1Cl` [Compound 165], the inhibition constant Ki on rat mGluR1 and at rat mGluR5 was above 500 nM in each case.

On to `O=S(=O)(c1cc(Cl)cc(Cl)c1)c1cnc2cc(Cl)ccc2c1-c1cccc(F)c1` [Compound 166], for which the inhibition constant Ki at rat mGluR1 is above 500 nM; on rat mGluR5 it was below 200 nM.

`O=S(=O)(c1ccc(F)cc1)c1cnc2cc(Cl)ccc2c1-c1cccc(F)c1` [Compound 167]: the inhibition constant Ki at rat mGluR1 is above 500 nM; on rat mGluR5, below 200 nM.

Consider `O=S(=O)(c1cccc(F)c1)c1cnc2cc(Cl)ccc2c1-c1cccc(F)c1` [Compound 168], for which the inhibition constant Ki was above 500 nM at rat mGluR1 and below 200 nM at rat mGluR5.

Turning to `O=S(=O)(c1cc(F)cc(F)c1)c1cnc2cc(Cl)ccc2c1-c1cccc(F)c1` [Compound 169], the inhibition constant Ki on rat mGluR1 was above 500 nM; on rat mGluR5 it was below 200 nM.

Take `O=S(=O)(c1ccc(F)c(F)c1)c1cnc2cc(Cl)ccc2c1-c1cccc(F)c1` [Compound 170, 7-chloro-3-(3,4-difluoro-benzenesulfonyl)-4-(3-fluoro-phenyl)-quinoline]: the inhibitory constant (Ki) at rat mGluR1 was above 500 nM; at rat mGluR5, below 200 nM.

For `O=S(=O)(c1ccc(F)c(Cl)c1)c1cnc2cc(Cl)ccc2c1-c1cccc(F)c1` [Compound 171], the Ki is above 500 nM at rat mGluR1 and below 200 nM on rat mGluR5.

In the case of `O=S(=O)(c1ccc(F)cc1)c1cnc2cc(Cl)ccc2c1-c1ccc(Cl)cc1` [Compound 172], the inhibition constant Ki at rat mGluR1 is above 500 nM; at rat mGluR5 it was below 200 nM.

On to `O=S(=O)(c1cccc(F)c1)c1cnc2cc(Cl)ccc2c1-c1ccc(Cl)cc1` [Compound 173], for which the Ki on rat mGluR1 was above 500 nM; at rat mGluR5, below 200 nM.

Consider `O=S(=O)(c1cc(F)cc(F)c1)c1cnc2cc(Cl)ccc2c1-c1ccc(Cl)cc1` [Compound 174], for which the Ki is above 500 nM at rat mGluR1 and below 200 nM on rat mGluR5.

Take `O=S(=O)(c1ccc(F)c(F)c1)c1cnc2cc(Cl)ccc2c1-c1ccc(Cl)cc1` [Compound 175]: the Ki on rat mGluR1 was above 500 nM; on rat mGluR5 it was below 200 nM.

For the compound `O=S(=O)(c1ccc(F)c(Cl)c1)c1cnc2cc(Cl)ccc2c1-c1ccc(Cl)cc1` [Compound 176], the values for the inhibitory constant (Ki) at rat mGluR1 and at rat mGluR5 were above 500 nM and below 200 nM, respectively.

For `N#Cc1cccc(S(=O)(=O)c2cnc3cc(Cl)ccc3c2-c2ccc(Cl)cc2)c1` [Compound 177], the inhibition constant Ki on rat mGluR1 was above 500 nM; on rat mGluR5 it was below 200 nM.

Take `O=S(=O)(c1cc(Cl)cc(Cl)c1)c1cnc2cc(Cl)ccc2c1-c1ccc(F)cc1` [Compound 178]: the Ki is above 500 nM at rat mGluR1 and below 200 nM on rat mGluR5.

Consider `O=S(=O)(c1ccc(F)cc1)c1cnc2cc(Cl)ccc2c1-c1ccc(F)cc1` [Compound 179], for which the results for the Ki at rat mGluR1 and at rat mGluR5 were above 500 nM and below 200 nM, respectively.

In the case of `O=S(=O)(c1cccc(F)c1)c1cnc2cc(Cl)ccc2c1-c1ccc(F)cc1` [Compound 180], the Ki is above 500 nM at rat mGluR1 and below 200 nM on rat mGluR5.

With `O=S(=O)(c1cc(F)cc(F)c1)c1cnc2cc(Cl)ccc2c1-c1ccc(F)cc1` [Compound 181], the Ki on rat mGluR1 was above 500 nM; at rat mGluR5, below 200 nM.

Consider `O=S(=O)(c1ccc(F)c(F)c1)c1cnc2cc(Cl)ccc2c1-c1ccc(F)cc1` [Compound 182], for which the inhibition constant Ki on rat mGluR1 is above 500 nM; on rat mGluR5, below 200 nM.

`O=S(=O)(c1ccc(F)c(Cl)c1)c1cnc2cc(Cl)ccc2c1-c1ccc(F)cc1` [Compound 183]: the Ki is above 500 nM on rat mGluR1 and below 200 nM on rat mGluR5.

As to `O=S(=O)(c1ccc(Cl)cc1)c1cnc2c(Cl)cccc2c1-c1ccc(Cl)c(Cl)c1` [Compound 184], the Ki at rat mGluR1 and at rat mGluR5 was above 500 nM each time.

Take `O=S(=O)(c1ccc(Cl)cc1)c1cnc2c(Cl)ccc(Cl)c2c1-c1cccc(Cl)c1` [Compound 185]: the Ki at rat mGluR1 and on rat mGluR5 was above 500 nM throughout.

With `N#Cc1cc(F)cc(S(=O)(=O)c2cnc3cc(Cl)ccc3c2-c2ccc(F)cc2)c1` [Compound 186, 7-chloro-3-(3-cyano-5-fluoro-benzenesulfonyl)-4-(4-fluoro-phenyl)-quinoline], the inhibition constant (Ki) was above 500 nM on rat mGluR1 and below 200 nM on rat mGluR5.

`O=S(=O)(c1ccc(Cl)s1)c1cnc2cc(Cl)ccc2c1-c1ccc(F)cc1` [Compound 187]: the inhibition constant Ki at rat mGluR1 was above 500 nM; on rat mGluR5, 200 to 500 nM.

Consider `O=S(=O)(c1ccc(Cl)c(F)c1)c1cnc2cc(F)c(Cl)cc2c1-c1cccc(F)c1` [Compound 188], for which the values for the Ki at rat mGluR1 and at rat mGluR5 were above 500 nM and 200 to 500 nM, respectively.

For `O=S(=O)(c1ccc(Cl)c(F)c1)c1cnc2cc(F)c(Cl)cc2c1-c1ccc(Cl)cc1` [Compound 189], the figures for the Ki on rat mGluR1 and at rat mGluR5 were above 500 nM and below 200 nM, respectively.

In the case of `O=S(=O)(c1ccc(Cl)c(F)c1)c1cnc2cc(F)c(Cl)cc2c1-c1ccc(F)cc1` [Compound 190], the inhibitory constant (Ki) at rat mGluR1 was above 500 nM; on rat mGluR5 it was below 200 nM.

With `N#Cc1cccc(S(=O)(=O)c2cnc3cc(C#N)ccc3c2-c2ccc(Cl)cc2)c1` [Compound 191], the Ki is above 500 nM at rat mGluR1 and 200 to 500 nM on rat mGluR5.

In the case of `N#Cc1ccc2c(-c3ccc(F)cc3)c(S(=O)(=O)c3ccc(F)c(F)c3)cnc2c1` [Compound 192], the Ki on rat mGluR1 and on rat mGluR5 was above 500 nM throughout.

As for `N#Cc1cccc(S(=O)(=O)c2cnc3cc(C#N)ccc3c2-c2ccc(F)cc2)c1` [Compound 193], the figures for the Ki on rat mGluR1 and on rat mGluR5 were above 500 nM and 200 to 500 nM, respectively.

Take `O=S(=O)(c1ccc(F)c(Cl)c1)c1cnc2cc(F)c(Cl)cc2c1-c1ccccc1F` [Compound 194]: the Ki at rat mGluR1 and at rat mGluR5 was above 500 nM each time.

As for `N#Cc1ccc2c(-c3ccccc3F)c(S(=O)(=O)c3ccc(F)c(Cl)c3)cnc2c1` [Compound 195], the Ki is above 500 nM on rat mGluR1 and below 200 nM at rat mGluR5.

One may read the Ki as a dissociation constant, usually derived from enzyme kinetics or from competition with a known ligand.
